Data set [1] in a line: Toxicity in BALB/c mouse xenografted with human HCT-116 cells assessed as morphological changes in heart at 12.5 to 25 mg/kg, po qd administered for 21 days by H & E staining based microscopic analysis. The format is organism-based. The settings on record: in vivo, 504 h, dose 12.5-25 mg/kg, time 21 day. (In general: A xenograft is tissue or cells of one species grown in another, often human tumour cells in immunodeficient mice.)

The nature of data set [2]: Toxicity in BALB/c mouse xenografted with human HCT-116 cells assessed as morphological changes in lung at 12.5 to 25 mg/kg, po qd administered for 21 days by H & E staining based microscopic analysis. The format is organism-based. The conditions noted are these: in vivo, 504 h, dose 12.5-25 mg/kg, time 21 day.
In data set [3] the test system is HCT-116. Kind of data set: Induction of cell cycle arrest in human HCT-116 cells assessed as accumulation of cells at S phase incubated for 12 hrs by propidium iodide staining based flow cytometric analysis. The format is functional. The settings on record: dose 0.125-0.5 µM, DDE = dose-dependent effect. A general note: Flow cytometry measures light scatter and fluorescence of single cells or particles in a stream.

Data set [4] has as its system HCT-116. Kind of data set: Antitumor activity against human HCT-116 cells xenografted in BALB/c mouse assessed as reduction in tumor growth by measuring T/C ratio at 25 mg/kg, po qd administered for 3 weeks and measured every 3 days by vernier caliper analysis. The format is functional.
For data set [5], the system named is HCT-116. In words: Induction of apoptosis in human HCT-116 cells assessed as increase in Bax protein expression incubated for 12 hrs by Western blot analysis. The format is functional, cell-based. The conditions noted are these: dose 0.125-0.5 µM, DDE = dose-dependent effect.
The nature of data set [6]: Toxicity in BALB/c mouse xenografted with human HCT-116 cells assessed as morphological changes in spleen at 12.5 to 25 mg/kg, po qd administered for 21 days by H & E staining based microscopic analysis. In kind it is organism-based. The conditions noted are these: in vivo, 504 h, dose 12.5-25 mg/kg, time 21 day.
The test system of data set [7] is HCT-116. In words: Induction of apoptosis in human HCT-116 cells assessed as late apoptotic cells at 0.125 uM incubated for 24 hrs by AnnexinV-FITC/PI staining based flow cytometry (reference value: 0.82 %). In kind it is functional.
The target of the next data set is Histone deacetylase 2 (Homo sapiens, UniProt Q92769). In words: Inhibition of human HDAC2 using RHKKAc fluorogenic peptide as substrate preincubated for 10 mins followed by substrate addition by fluorescence based analysis.
Sequence of Histone deacetylase 2 (Q92769 whole entry): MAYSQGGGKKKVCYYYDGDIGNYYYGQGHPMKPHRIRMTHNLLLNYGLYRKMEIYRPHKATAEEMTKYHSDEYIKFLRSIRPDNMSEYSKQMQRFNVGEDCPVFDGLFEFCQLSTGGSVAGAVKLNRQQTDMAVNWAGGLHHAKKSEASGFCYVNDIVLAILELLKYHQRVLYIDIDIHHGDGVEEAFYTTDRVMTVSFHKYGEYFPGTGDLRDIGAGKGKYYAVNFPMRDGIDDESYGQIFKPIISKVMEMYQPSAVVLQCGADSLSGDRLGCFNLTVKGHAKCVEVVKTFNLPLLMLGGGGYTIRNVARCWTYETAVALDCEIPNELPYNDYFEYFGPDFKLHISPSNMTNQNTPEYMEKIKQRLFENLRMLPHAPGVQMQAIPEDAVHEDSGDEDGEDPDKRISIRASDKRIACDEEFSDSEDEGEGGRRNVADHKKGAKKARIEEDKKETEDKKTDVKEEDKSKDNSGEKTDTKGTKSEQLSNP
For data set [8], the system named is HCT-116. Kind of data set: Effect on HDAC1 protein expression in human HCT-116 cells incubated for 12 hrs by Western blot analysis. The conditions noted are these: dose 0.125-0.5 µM, DDE = dose-dependent effect. The format is functional, cell-based.
Data set [9] has as its system HCT-116. In words: Antiproliferative activity against human HCT-116 cells assessed as inhibition of cell growth incubated for 72 hrs by luminescence based analysis. The format is functional. The conditions noted are these: HCT-116, 72 h.
In data set [10] the test system is HCT-116. In words: Induction of apoptosis in human HCT-116 cells assessed as dead cells at 0.25 uM incubated for 24 hrs by AnnexinV-FITC/PI staining based flow cytometry (reference value: 4.62 %). The format is functional.
The test system of data set [11] is HCT-116. Kind of data set: Effect on ac-H3 protein expression in human HCT-116 cells incubated for 12 hrs by Western blot analysis. In kind it is functional, cell-based. The conditions noted are these: dose 0.125-0.5 µM, DDE = dose-dependent effect. (A western blot detects proteins with antibodies after separation by electrophoresis.)
A short description of data set [12]: Toxicity in BALB/c mouse xenografted with human HCT-116 cells assessed as morphological changes in liver at 12.5 to 25 mg/kg, po qd administered for 21 days by H & E staining based microscopic analysis. In kind it is organism-based. The conditions noted are these: in vivo, 504 h, dose 12.5-25 mg/kg, time 21 day.
The subject of data set [13] is HCT-116. Kind of data set: Antitumor activity against human HCT-116 cells xenografted in BALB/c mouse assessed as reduction in tumor growth at 12.5 mg/kg, po qd administered for 3 weeks and measured every 3 days by vernier caliper analysis. In kind it is functional, organism-based.
The subject of data set [14] is HCT-116. Kind of data set: Induction of apoptosis in human HCT-116 cells assessed as viable cells at 0.125 uM incubated for 24 hrs by AnnexinV-FITC/PI staining based flow cytometry (reference value: 93.64%). In kind it is functional. The settings on record: read-out: Activity.
For data set [15], the system named is HCT-116. In words: Effect on ac-H4 protein expression in human HCT-116 cells incubated for 12 hrs by Western blot analysis. In kind it is functional, cell-based. The conditions noted are these: dose 0.125-0.5 µM, DDE = dose-dependent effect.
The test system of data set [16] is HCT-116. Kind of data set: Induction of apoptosis in human HCT-116 cells assessed as decrease in Bcl2 protein expression incubated for 12 hrs by Western blot analysis. The format is functional, cell-based. The conditions noted are these: dose 0.125-0.5 µM, DDE = dose-dependent effect.
For data set [17], the target named is Histone deacetylase 3/Nuclear receptor corepressor 2 (HDAC3/NCoR2) (Homo sapiens, UniProt O15379). Kind of data set: Inhibition of human HDAC3/NcoR2 using RHKKAc fluorogenic peptide as substrate preincubated for 10 mins followed by substrate addition by fluorescence based analysis. The format is protein-complex assay.
Sequence of Histone deacetylase 3/Nuclear receptor corepressor 2 (HDAC3/NCoR2) (O15379 whole entry): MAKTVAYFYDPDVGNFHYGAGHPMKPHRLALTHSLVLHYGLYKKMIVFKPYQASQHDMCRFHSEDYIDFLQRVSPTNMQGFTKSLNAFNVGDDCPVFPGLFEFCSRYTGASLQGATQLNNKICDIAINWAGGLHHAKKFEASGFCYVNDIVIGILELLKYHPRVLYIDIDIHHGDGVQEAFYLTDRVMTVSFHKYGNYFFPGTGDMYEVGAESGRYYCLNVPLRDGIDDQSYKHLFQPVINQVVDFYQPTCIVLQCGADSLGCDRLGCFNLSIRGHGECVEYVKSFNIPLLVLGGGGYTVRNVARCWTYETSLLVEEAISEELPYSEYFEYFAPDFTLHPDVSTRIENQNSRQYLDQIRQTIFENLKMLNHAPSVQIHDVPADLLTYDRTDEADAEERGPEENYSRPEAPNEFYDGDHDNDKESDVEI
Sequence of Histone deacetylase 3/Nuclear receptor corepressor 2 (HDAC3/NCoR2) (Q9Y618 whole entry, further chain): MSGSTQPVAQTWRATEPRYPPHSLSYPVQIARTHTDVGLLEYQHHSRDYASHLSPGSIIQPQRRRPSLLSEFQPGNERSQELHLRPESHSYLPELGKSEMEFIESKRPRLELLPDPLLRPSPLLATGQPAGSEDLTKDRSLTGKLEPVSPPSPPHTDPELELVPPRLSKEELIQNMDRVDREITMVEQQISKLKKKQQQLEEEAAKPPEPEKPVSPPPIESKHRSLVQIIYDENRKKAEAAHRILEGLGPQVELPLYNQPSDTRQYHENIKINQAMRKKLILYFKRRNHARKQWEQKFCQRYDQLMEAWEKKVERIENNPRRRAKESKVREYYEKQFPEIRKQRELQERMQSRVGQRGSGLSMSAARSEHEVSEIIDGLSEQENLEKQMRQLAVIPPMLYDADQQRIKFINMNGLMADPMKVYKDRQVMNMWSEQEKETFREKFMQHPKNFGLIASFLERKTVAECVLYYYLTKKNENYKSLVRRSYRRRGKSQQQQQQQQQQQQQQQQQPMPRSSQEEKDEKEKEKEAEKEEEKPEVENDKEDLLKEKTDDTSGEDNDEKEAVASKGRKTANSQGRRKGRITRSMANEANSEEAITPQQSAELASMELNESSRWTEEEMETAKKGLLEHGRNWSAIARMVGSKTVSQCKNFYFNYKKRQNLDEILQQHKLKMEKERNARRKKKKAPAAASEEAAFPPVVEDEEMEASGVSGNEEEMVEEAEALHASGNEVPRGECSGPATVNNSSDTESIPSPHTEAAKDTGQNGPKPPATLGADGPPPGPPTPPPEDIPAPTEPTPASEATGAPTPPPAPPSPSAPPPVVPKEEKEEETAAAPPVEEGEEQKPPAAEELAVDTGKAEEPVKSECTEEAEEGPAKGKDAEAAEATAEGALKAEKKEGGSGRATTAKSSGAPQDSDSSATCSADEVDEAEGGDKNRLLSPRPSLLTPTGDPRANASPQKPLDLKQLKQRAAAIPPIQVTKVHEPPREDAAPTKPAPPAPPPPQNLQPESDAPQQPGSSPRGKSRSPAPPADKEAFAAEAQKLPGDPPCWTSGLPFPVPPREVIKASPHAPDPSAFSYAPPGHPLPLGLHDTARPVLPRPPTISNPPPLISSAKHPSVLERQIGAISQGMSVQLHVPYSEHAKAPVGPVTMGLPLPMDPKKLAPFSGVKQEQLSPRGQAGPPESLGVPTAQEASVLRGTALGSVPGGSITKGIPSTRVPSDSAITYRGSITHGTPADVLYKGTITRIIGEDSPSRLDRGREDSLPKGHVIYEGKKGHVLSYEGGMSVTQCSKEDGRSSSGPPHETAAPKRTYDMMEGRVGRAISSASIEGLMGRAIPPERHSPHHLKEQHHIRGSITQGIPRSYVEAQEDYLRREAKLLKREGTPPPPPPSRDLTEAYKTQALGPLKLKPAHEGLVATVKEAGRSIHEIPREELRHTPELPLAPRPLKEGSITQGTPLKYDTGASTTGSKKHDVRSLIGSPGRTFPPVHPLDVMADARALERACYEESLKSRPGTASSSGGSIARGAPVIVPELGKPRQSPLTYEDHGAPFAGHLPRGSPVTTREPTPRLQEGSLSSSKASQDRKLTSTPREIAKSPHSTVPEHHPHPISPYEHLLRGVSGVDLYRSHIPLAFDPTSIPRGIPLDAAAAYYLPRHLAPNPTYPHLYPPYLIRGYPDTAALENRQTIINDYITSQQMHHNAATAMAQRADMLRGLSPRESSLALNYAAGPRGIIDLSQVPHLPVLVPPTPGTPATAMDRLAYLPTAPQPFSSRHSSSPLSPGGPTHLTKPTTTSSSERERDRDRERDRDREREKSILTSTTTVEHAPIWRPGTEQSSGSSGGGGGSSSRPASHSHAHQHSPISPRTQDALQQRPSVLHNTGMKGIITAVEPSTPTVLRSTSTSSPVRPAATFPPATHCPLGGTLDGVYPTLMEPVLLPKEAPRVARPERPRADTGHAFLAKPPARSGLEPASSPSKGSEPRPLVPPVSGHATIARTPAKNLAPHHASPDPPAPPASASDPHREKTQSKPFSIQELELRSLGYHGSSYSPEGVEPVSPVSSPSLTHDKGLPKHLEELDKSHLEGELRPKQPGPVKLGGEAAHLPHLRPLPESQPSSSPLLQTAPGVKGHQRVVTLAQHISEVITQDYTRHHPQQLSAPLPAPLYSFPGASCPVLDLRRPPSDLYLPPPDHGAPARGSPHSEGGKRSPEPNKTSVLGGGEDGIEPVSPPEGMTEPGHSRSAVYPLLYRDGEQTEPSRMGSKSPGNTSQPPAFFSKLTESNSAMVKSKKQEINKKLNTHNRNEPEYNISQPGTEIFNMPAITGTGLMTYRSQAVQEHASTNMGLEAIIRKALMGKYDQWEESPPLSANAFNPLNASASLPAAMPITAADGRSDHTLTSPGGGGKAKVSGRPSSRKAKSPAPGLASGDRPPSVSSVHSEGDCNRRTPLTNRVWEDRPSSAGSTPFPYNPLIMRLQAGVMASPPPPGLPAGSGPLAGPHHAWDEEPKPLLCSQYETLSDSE

Molecules are shown by their SMILES. The source made the active and inactive calls. The rule behind the calls is not given here.

Broadly, the IC50 is the concentration at which inhibition is half-maximal. Consider `COc1ccccc1CN1C(=O)C2=C(CCN(Cc3ccc(C(=O)Nc4ccccc4N)cc3)C2)N2CCN=C12`, for which the Activity result is “Non-Toxic” in data set [1]; “Non-Toxic” in data set [2]; “Dde” in the data set with HCT-116 [3]; “Dde” in the data set on HCT-116 [5]; “Non-Toxic” in data set [6]; 1.35% in the data set with HCT-116 [7]. In addition, the Activity result was “Dde” with HCT-116 [8]; 4.06% in the data set on HCT-116 [10]; “Dde” with HCT-116 [11]; “Non-Toxic” in data set [12]; “Dde” in the data set with HCT-116 [15]; “Dde” in the data set on HCT-116 [16]. For the same compound, in the data set on HCT-116 [4], the T/C amounted to 0.33. Moreover, the IC50 on Histone deacetylase 2 turned out to be 0.346 µM; in the data set with HCT-116 [9], 0.653 µM; in data set [17], 0.589 µM. Besides, the outcome in the data set with HCT-116 [13] was Active. For the same compound, the viability at 0.125 µM with HCT-116 [14] came out at 91.5%.

The values are drawn from ChEMBL document CHEMBL5137036, “Design and synthesis of highly TRAIL expression HDAC inhibitors based on ONC201 to promote apoptosis of colorectal cancer” (Eur J Med Chem, 2022).
